Tests used:
[1] = target: RAF proto-oncogene serine/threonine-protein kinase (Homo sapiens) (UniProt P04049); assay: Selectivity interaction (KinomeScan (DiscoverX)) EUB0000092b RAF1; settings: at 10 µM
[2] = target: T1, Serine/threonine-protein kinase LATS1 (Homo sapiens) (UniProt O95835); assay: Selectivity interaction (KinomeScan (DiscoverX)) EUB0000092b LATS1; settings: at 10 µM
T1 sequence (whole entry): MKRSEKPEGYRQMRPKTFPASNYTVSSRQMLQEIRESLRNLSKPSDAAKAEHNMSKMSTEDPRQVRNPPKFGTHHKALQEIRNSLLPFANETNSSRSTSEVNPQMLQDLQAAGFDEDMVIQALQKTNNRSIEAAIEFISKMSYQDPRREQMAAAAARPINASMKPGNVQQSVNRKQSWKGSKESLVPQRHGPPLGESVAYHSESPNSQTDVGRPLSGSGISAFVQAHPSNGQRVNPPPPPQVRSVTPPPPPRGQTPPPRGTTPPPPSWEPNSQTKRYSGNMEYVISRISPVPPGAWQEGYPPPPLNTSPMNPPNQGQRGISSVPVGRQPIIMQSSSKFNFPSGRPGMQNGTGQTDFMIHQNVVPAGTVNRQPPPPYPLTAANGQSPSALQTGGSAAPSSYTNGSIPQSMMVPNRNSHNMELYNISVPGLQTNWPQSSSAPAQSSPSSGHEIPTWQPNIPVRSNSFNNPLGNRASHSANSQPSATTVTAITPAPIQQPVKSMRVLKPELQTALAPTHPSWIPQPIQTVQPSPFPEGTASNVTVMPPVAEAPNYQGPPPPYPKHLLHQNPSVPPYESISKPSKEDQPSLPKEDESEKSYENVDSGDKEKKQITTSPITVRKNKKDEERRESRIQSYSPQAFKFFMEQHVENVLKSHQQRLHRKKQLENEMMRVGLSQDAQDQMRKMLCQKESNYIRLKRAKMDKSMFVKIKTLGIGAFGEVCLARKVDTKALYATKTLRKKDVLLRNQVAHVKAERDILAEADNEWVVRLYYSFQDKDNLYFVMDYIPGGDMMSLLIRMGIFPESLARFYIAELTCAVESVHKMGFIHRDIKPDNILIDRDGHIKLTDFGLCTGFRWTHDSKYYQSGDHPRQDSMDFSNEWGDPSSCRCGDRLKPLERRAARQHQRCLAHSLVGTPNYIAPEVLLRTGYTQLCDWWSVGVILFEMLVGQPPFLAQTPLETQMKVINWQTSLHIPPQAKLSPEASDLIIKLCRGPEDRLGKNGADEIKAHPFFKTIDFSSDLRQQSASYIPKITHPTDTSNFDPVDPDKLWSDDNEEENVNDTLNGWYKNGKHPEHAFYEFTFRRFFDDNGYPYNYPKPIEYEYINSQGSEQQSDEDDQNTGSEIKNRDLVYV

[3] = target: T2, Serine/threonine-protein kinase TAO1 (Homo sapiens) (UniProt Q7L7X3); assay: Selectivity interaction (KinomeScan (DiscoverX)) EUB0001079a TAOK1; settings: at 1 µM
T2 sequence (whole entry): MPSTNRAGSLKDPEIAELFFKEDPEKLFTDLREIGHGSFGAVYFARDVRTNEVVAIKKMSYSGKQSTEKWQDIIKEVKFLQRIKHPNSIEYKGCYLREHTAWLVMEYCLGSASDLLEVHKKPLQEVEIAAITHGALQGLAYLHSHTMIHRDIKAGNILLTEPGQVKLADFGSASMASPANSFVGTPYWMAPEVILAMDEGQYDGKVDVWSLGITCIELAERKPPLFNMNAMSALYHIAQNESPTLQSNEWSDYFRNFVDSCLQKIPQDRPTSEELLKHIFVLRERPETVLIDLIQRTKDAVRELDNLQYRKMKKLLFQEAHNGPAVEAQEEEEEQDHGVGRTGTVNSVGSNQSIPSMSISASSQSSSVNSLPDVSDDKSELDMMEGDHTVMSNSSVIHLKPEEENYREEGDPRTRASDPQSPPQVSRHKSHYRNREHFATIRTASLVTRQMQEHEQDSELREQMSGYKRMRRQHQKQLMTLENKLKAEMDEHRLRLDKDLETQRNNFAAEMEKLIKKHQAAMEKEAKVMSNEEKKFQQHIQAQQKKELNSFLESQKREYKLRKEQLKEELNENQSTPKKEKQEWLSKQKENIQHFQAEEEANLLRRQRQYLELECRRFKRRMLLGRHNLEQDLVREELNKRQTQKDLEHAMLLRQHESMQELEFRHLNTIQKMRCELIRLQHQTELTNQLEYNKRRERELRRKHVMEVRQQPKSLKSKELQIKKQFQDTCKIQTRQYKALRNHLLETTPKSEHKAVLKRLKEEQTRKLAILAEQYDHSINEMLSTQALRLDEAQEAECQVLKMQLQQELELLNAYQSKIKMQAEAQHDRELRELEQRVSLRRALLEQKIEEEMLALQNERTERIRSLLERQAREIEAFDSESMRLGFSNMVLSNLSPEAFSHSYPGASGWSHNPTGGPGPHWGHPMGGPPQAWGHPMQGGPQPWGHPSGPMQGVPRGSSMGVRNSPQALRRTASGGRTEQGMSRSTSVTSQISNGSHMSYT

[4] = tested on: Phosphatidylinositol 4,5-bisphosphate 3-kinase catalytic subunit alpha isoform (Homo sapiens), P42336 [C420R]; assay: (§1) Selectivity interaction (KinomeScan (DiscoverX)) EUB0000666a PIK3CA; settings: at 10 µM
Phosphatidylinositol 4,5-bisphosphate 3-kinase catalytic subunit alpha isoform (Homo sapiens), P42336 [C420R], sequence (P42336 whole entry C420R, canonical isoform): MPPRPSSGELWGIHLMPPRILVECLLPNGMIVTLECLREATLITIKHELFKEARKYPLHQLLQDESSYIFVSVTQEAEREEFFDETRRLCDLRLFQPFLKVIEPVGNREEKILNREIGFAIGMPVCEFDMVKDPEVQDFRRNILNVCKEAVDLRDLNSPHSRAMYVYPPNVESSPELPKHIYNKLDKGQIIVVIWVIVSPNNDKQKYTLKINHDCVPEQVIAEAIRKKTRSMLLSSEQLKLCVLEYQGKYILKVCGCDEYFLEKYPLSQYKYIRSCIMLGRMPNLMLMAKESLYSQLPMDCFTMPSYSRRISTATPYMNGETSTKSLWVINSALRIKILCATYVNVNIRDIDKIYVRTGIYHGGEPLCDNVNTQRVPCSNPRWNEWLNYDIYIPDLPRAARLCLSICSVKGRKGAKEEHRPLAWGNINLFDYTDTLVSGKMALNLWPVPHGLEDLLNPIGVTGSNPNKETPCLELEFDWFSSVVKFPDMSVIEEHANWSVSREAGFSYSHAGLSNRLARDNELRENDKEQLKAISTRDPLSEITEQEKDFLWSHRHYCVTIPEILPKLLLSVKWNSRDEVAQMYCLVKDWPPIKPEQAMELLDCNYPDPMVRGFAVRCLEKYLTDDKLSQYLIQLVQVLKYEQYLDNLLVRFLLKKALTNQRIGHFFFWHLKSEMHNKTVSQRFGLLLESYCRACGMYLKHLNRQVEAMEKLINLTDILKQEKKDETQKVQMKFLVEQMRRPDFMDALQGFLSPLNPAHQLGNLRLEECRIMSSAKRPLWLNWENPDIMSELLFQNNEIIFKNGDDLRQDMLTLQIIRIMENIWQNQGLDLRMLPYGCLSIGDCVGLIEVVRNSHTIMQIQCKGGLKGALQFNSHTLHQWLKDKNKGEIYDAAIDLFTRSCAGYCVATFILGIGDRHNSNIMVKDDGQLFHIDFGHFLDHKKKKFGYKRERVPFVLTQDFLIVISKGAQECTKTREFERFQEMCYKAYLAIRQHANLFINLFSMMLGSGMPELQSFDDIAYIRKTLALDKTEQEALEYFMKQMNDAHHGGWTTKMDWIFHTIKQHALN

[5] = tested on: Phosphatidylinositol 4,5-bisphosphate 3-kinase catalytic subunit alpha isoform (Homo sapiens), P42336 [E542K]; assay: as §1; settings: at 10 µM
Phosphatidylinositol 4,5-bisphosphate 3-kinase catalytic subunit alpha isoform (Homo sapiens), P42336 [E542K], sequence (P42336 whole entry E542K, canonical isoform): as the sequence (P42336 whole entry C420R, canonical isoform) above, with R420C, E542K counted along it

[6] = tested on: Phosphatidylinositol 4,5-bisphosphate 3-kinase catalytic subunit alpha isoform (Homo sapiens), P42336 [E545K]; assay: as §1; settings: at 10 µM
Phosphatidylinositol 4,5-bisphosphate 3-kinase catalytic subunit alpha isoform (Homo sapiens), P42336 [E545K], sequence (P42336 whole entry E545K, canonical isoform): as the sequence (P42336 whole entry C420R, canonical isoform) above, with R420C, E545K counted along it

[7] = tested on: Phosphatidylinositol 4,5-bisphosphate 3-kinase catalytic subunit alpha isoform (Homo sapiens), P42336 [I800L]; assay: as §1; settings: at 10 µM
Phosphatidylinositol 4,5-bisphosphate 3-kinase catalytic subunit alpha isoform (Homo sapiens), P42336 [I800L], sequence (P42336 whole entry I800L, canonical isoform): as the sequence (P42336 whole entry C420R, canonical isoform) above, with R420C, I800L counted along it

[8] = tested on: Phosphatidylinositol 4,5-bisphosphate 3-kinase catalytic subunit alpha isoform (Homo sapiens), P42336 [H1047Y]; assay: as §1; settings: at 10 µM
Phosphatidylinositol 4,5-bisphosphate 3-kinase catalytic subunit alpha isoform (Homo sapiens), P42336 [H1047Y], sequence (P42336 whole entry H1047Y, canonical isoform): as the sequence (P42336 whole entry C420R, canonical isoform) above, with R420C, H1047Y counted along it

[9] = tested on: Phosphatidylinositol 4,5-bisphosphate 3-kinase catalytic subunit alpha isoform (Homo sapiens), P42336 [M1043I]; assay: as §1; settings: at 10 µM
Phosphatidylinositol 4,5-bisphosphate 3-kinase catalytic subunit alpha isoform (Homo sapiens), P42336 [M1043I], sequence (P42336 whole entry M1043I, canonical isoform): as the sequence (P42336 whole entry C420R, canonical isoform) above, with R420C, M1043I counted along it

[10] = tested on: Phosphatidylinositol 4,5-bisphosphate 3-kinase catalytic subunit alpha isoform (Homo sapiens), P42336 [H1047L]; assay: as §1; settings: at 10 µM
Phosphatidylinositol 4,5-bisphosphate 3-kinase catalytic subunit alpha isoform (Homo sapiens), P42336 [H1047L], sequence (P42336 whole entry H1047L, canonical isoform): as the sequence (P42336 whole entry C420R, canonical isoform) above, with R420C, H1047L counted along it

[11] = tested on: Phosphatidylinositol 4,5-bisphosphate 3-kinase catalytic subunit alpha isoform (Homo sapiens), P42336 [Q546K]; assay: as §1; settings: at 10 µM
Phosphatidylinositol 4,5-bisphosphate 3-kinase catalytic subunit alpha isoform (Homo sapiens), P42336 [Q546K], sequence (P42336 whole entry Q546K, canonical isoform): as the sequence (P42336 whole entry C420R, canonical isoform) above, with R420C, Q546K counted along it

[12] = tested on: Phosphatidylinositol 4,5-bisphosphate 3-kinase catalytic subunit alpha isoform (Homo sapiens), P42336 [E545A]; assay: as §1; settings: at 10 µM
Phosphatidylinositol 4,5-bisphosphate 3-kinase catalytic subunit alpha isoform (Homo sapiens), P42336 [E545A], sequence (P42336 whole entry E545A, canonical isoform): as the sequence (P42336 whole entry C420R, canonical isoform) above, with R420C, E545A counted along it

[13] = target: Phosphatidylinositol 4,5-bisphosphate 3-kinase catalytic subunit alpha isoform (Homo sapiens) (UniProt P42336); assay: as §1; settings: at 10 µM
Phosphatidylinositol 4,5-bisphosphate 3-kinase catalytic subunit alpha isoform (Homo sapiens), sequence (P42336 whole entry, canonical isoform): as the sequence (P42336 whole entry C420R, canonical isoform) above, with R420C counted along it

[14] = target: Sigma intracellular receptor 2 (Homo sapiens) (UniProt Q5BJF2); assay: Selectivity interaction (GPCR panel (PDSP screen)) EUB0000311b TMEM97; settings: at 10 µM
Sigma intracellular receptor 2 (Homo sapiens), sequence (Q5BJF2 whole entry): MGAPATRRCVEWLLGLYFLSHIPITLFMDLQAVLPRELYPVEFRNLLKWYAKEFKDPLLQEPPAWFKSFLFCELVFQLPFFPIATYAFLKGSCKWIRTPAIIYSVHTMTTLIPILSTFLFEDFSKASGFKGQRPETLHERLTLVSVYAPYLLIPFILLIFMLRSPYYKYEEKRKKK

[15] = target: Receptor-interacting serine/threonine-protein kinase 2 (Homo sapiens, UniProt O43353); assay: Selectivity interaction (Kinase panel (Invitrogen)) EUB0000639a RIPK2; settings: at 200 nM
Receptor-interacting serine/threonine-protein kinase 2, sequence (O43353 whole entry): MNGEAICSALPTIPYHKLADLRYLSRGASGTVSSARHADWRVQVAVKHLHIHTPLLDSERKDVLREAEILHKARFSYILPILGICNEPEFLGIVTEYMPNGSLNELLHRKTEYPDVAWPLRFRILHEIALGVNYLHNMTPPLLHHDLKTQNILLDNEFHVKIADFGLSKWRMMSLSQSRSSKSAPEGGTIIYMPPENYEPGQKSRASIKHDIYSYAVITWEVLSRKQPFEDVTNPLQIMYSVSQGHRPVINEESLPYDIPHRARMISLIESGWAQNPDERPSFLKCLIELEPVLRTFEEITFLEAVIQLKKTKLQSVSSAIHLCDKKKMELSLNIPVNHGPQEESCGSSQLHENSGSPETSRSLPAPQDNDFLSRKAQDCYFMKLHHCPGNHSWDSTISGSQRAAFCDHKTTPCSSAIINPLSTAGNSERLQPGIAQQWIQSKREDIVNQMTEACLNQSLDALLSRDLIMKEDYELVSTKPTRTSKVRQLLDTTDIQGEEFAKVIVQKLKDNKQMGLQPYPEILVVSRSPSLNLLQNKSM

[16] = target: Serine/threonine-protein kinase 24 (Homo sapiens) (UniProt Q9Y6E0); assay: Selectivity interaction (KinomeScan (DiscoverX)) EUB0000618a STK24; settings: at 10 µM
Serine/threonine-protein kinase 24 (Homo sapiens), sequence (Q9Y6E0 whole entry, looked up): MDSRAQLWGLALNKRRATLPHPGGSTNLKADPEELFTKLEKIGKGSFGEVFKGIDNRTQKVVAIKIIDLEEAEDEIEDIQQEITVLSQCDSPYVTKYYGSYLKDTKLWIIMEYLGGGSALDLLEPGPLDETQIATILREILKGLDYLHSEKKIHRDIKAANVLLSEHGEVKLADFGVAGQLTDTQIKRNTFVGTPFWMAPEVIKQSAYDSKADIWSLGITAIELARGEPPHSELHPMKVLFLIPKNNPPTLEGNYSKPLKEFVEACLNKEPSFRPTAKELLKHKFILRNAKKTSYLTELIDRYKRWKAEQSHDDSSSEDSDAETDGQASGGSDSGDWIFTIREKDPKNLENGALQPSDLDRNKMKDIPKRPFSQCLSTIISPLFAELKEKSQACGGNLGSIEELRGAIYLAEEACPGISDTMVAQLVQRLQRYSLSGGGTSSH

RAF proto-oncogene serine/threonine-protein kinase (Homo sapiens), sequence (P04049 whole entry): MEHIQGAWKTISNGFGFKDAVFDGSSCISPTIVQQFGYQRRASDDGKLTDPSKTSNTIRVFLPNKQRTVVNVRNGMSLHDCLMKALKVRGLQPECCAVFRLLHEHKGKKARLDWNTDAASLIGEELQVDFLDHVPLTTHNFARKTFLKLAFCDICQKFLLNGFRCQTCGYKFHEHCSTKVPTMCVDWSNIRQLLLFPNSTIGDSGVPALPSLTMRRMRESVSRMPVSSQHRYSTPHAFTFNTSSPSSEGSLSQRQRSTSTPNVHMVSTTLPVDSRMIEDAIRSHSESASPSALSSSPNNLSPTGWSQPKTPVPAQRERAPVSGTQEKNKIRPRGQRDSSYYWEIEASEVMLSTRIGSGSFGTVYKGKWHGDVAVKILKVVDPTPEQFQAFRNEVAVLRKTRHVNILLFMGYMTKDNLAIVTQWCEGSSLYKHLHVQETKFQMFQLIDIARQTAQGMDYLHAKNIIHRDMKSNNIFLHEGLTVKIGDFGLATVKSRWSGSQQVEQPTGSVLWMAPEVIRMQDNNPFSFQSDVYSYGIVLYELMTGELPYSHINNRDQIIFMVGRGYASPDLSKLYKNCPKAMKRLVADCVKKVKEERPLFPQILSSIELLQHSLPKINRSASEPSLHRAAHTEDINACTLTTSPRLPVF

For CCC(=O)N1CCN(c2ccc(-n3c(=O)ccc4cnc5ccc(-c6cnc7ccccc7c6)cc5c43)cc2C(F)(F)F)CC1, the % of control [1] was 48% and the % of control [2] was 100%.
Nc1cnc(N2CCc3cc(S(=O)(=O)Nc4c(F)cc(Cl)cc4F)cc(N4CCCC4=O)c32)nc1 [TP-020n] showed a % of control [3] of 80%.
In the case of O=C(NOC[C@H](O)CO)c1ccc(F)c(F)c1Nc1ccc(I)cc1F, the % of control [4] was 50%, the % of control [5] was 57% and the % of control [6] was 53%. The % of control [7] was 33%, the % of control [8] was 57% and the % of control [9] was 42%. The % of control [10] was 45%, the % of control [11] was 41% and the % of control [12] was 45%. It also gave a % of control [13] of 56%.
Molecule CCc1ccccc1C(=O)Nc1n[nH]c2c(C)c(F)c(C3C(C#N)=C(C)N(C)C(C)=C3C#N)cc12 [BAY-3827] has a % of inhibition [14] of 78.3%.
CC[C@@H]1[C@H](F)C(=O)N[C@@H]1COc1nccc2cc(C(N)=O)c(OC)cc12 [ZIMLOVISERTIB] gave a % of inhibition [15] of 16.8%.
O[C@H]1CC[C@H](Nc2ncc3nc(Nc4c(F)cc(F)cc4F)n([C@H]4CCOC4)c3n2)CC1 was tested, and the % of control [16] was 88%.

— ChEMBL document CHEMBL5465560, “Selectivity Literature for EUbOPEN Chemogenomic Library” (2024)
